This passage reports EC50 results from patent US20240199623A1 (ILDONG PHARMACEUTICAL CO., LTD., priority 2020, published 2024).

SMILES strings stand for the structures. pEC50: −log10 of the molar value.

In this assay the target is human wild type-CFTR (Homo sapiens, UniProt P13569). The assay is described as follows: Cell-based YFP assay. More on the design: expressed in transfected cells; host or cells: CHO-K1 (Chinese hamster ovary). Conditions: CHO-K1 cells expressing human wild type-CFTR and YFP-H148Q/I152L; forskolin 20 μM = 100% activity; read-out: Cell-based YFP Assay (EC50) Concentration Range. The method in brief:
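CHO-K1 cells co-expressing human wild-type CFTR and YFP-H148Q/I152L halide sensor, grown 48 h at 37 °C, then in PBS. YFP quenching by I⁻ influx read at 37 °C after adding 140 mM I⁻ solution, sampled every 0.4 s for 14 s. Triplicates averaged; EC50 fitted.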

Sequence of human wild type-CFTR (P13569 whole entry): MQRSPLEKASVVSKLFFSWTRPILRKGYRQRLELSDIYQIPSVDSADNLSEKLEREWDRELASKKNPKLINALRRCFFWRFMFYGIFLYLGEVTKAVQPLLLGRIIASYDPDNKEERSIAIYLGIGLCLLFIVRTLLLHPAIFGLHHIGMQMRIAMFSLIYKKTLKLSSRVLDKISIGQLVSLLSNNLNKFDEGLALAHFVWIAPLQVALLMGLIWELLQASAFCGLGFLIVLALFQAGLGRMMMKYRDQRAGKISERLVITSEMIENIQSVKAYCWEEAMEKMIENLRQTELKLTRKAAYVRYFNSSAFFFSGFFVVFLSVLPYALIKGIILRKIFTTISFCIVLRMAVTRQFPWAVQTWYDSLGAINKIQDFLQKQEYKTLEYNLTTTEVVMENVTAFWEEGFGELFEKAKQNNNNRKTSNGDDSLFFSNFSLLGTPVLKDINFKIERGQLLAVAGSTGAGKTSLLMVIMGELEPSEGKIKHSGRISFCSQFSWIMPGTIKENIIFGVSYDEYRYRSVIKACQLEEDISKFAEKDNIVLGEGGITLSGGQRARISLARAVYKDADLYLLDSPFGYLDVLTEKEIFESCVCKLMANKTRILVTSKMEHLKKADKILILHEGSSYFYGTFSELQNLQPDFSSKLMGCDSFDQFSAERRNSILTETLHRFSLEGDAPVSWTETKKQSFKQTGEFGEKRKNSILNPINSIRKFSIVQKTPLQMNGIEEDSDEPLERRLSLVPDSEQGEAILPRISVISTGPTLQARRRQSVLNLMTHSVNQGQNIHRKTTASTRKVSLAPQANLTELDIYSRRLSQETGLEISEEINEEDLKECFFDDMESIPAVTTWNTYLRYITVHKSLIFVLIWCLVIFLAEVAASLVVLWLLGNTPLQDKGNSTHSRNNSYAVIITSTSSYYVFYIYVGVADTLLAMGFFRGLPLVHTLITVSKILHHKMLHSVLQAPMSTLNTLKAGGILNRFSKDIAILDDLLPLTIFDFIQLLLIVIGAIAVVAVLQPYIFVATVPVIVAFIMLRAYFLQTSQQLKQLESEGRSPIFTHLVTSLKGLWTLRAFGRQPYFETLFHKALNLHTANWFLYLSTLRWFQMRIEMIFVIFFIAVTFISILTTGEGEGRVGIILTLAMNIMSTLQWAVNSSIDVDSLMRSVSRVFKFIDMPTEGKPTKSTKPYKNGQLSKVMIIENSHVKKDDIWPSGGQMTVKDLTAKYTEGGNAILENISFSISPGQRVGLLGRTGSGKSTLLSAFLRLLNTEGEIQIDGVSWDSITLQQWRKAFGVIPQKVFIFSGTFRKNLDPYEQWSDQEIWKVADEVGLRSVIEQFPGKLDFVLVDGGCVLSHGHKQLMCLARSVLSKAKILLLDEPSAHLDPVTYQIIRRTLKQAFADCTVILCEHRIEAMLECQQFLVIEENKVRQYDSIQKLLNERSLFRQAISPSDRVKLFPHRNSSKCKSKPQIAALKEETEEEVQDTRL

With `COc1ccc(-c2ccnc3cc(C(=O)Nc4ccc(C(=O)N5CCOCC5)c(OC)c4)nn23)cc1OC` [Compound 217, 7-(3,4-dimethoxyphenyl)-N-(3-methoxy-4-(morpholine-4-carbonyl)phenyl)pyrazolo [1,5-a] pyrimidine-2-carboxamide], the pEC50 is at most 5.70. With `COc1ccc(-c2ccnc3cc(C(=O)N[C@H]4CC[C@@H](C(=O)OCCCN5CCOCC5)CC4)nn23)cc1OC` [Compound 196, 3-morpholinopropyl (1s,4s)-4-(7-(3,4-dimethoxyphenyl)pyrazolo [1,5-a]pyrimidine-2-carboxamido)cyclohexane-1-carboxylate], the pEC50 was 5.70 to 6.70. For `COc1ccc(-c2ccnc3cc(C(=O)NN4CCOCC4)nn23)cc1OC` [Compound 99, 7-(3,4-dimethoxyphenyl)-N-morpholinopyrazolo[1,5-a] pyrimidine-2-carboxamide] the value was at most 5.70; for `COc1ccc(-c2ccnc3cc(C(=O)NCc4ccc(C(=O)O)cc4)nn23)cc1OC` [Compound 94, 4-((7-(3,4-dimethoxyphenyl)pyrazolo[1,5-a]pyrimidine-2-carboxamido)methyl) benzoic acid], at most 5.70. As for `COc1ccc(-c2ccnc3cc(C(=O)N4C[C@H](C)N(C(=O)c5ccccc5)C[C@@H]4C)nn23)cc1OC` [Compound 366, ((2S,5S)-4-benzoyl-2,5-dimethylpiperazin-1-yl)(7-(3,4-dimethoxyphenyl)pyrazolo[1,5-a]pyrimidin-2-yl)methanone], the figure is over 6.70; as for `COc1ccc(-c2ccnc3cc(C(=O)N4CCN(C(=O)c5ccc(Cl)cc5)[C@@H](C)C4)nn23)cc1OC` [Compound 262, (S)-(4-(4-chlorobenzoyl)-3-methylpiperazin-1-yl) (7-(3,4-dimethoxyphenyl)pyrazolo[1,5-a]pyrimidin-2-yl)methanone], 5.70 to 6.70. As for `CCCCOC(=O)[C@H]1CC[C@H](NC(=O)c2cc3nccc(-c4ccc(OC)c(OC)c4)n3n2)CC1` [Compound 332, butyl (1r,4r)-4-(7-(3,4-dimethoxyphenyl)pyrazolo [1,5-a]pyrimidine-2-carboxamido)cyclohexane-1-carboxylate], the figure is 5.70 to 6.70; as for `CCOc1ccc(NC(=O)c2cc3nccc(-c4ccc(OC)cc4)n3n2)cc1` [Compound 13, N-(4-ethoxyphenyl)-7-(4-methoxyphenyl)pyrazolo [1,5-a]pyrimidine-2-carboxamide], 5.70 to 6.70; as for `COc1ccc(-c2ccnc3cc(C(=O)NC45CC(C(N)=O)(C4)C5)nn23)cc1OC` [Compound 95, N-(3-carbamoylbicyclo [1.1.1]pentan-1-yl)-7-(3,4-dimethoxyphenyl) pyrazolo[1,5-a]pyrimidine-2-carboxamide], at most 5.70. Turning to `COC(=O)c1ccc(NC(=O)c2cc3nccc(-c4ccc(OC)c(OC)c4)n3n2)cc1C` [Compound 191, methyl 4-(7-(3,4-dimethoxyphenyl)pyrazolo [1,5-a]pyrimidine-2-carboxamido)-2-methylbenzoate], the pEC50 is over 6.70. Regarding `COc1ccc(-c2ccnc3cc(C(=O)N4CCN(C(=O)c5ccccc5OC)[C@@H](C)C4)nn23)cc1OC` [Compound 317, (S)-(7-(3,4-dimethoxyphenyl)pyrazolo[1,5-a]pyrimidin-2-yl)(4-(2-methoxybenzoyl)-3-methylpiperazin-1-yl) methanone], the pEC50 was 5.70 to 6.70. For `COc1ccc(-c2ccnc3cc(C(=O)N4CCCc5cc(C(=O)N6CCOCC6)ccc54)nn23)cc1OC` [Compound 236, (7-(3,4-dimethoxyphenyl)pyrazolo[1,5-a]pyrimidin-2-yl)(6-(morpholine-4-carbonyl)-3,4-dihydroquinolin-1(2H)-yl)methanone] the value was at most 5.70; for `COc1ccc(-c2ccnc3cc(C(=O)N4CCc5ccc(C(=O)O)cc5C4)nn23)cc1OC` [Compound 155, 2-(7-(3,4-dimethoxyphenyl)pyrazolo[1,5-a]pyrimidine-2-carbonyl)-1,2,3,4-tetrahydroisoquinoline-7-carboxylic acid], at most 5.70.
